Patent publication US11472798B2 (Mission Therapeutics Limited, priority 2014, dated 2022)
pIC50: −log10 of the molar value.

Target: T1, UCHL1 (Homo sapiens, UniProt P09936)
T1 construct: made in house; host or cells: HEK293T
T1 sequence (P09936 1-223): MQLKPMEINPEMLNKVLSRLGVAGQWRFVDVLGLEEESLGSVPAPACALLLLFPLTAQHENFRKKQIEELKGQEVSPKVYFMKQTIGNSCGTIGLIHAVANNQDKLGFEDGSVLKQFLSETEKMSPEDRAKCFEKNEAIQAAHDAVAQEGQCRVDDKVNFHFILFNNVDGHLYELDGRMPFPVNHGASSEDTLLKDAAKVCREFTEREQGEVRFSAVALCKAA
Assay: UCHL1 biochemical IC50 assay (fluorescence polarisation)
Settings: 30 min enzyme/compound pre-incubation at room temp, read after 2 hr incubation, read-out: Activity range (UCHL1 biochemical IC50 assay)
Excerpt: Biological Activity of Compounds of the Invention Abbreviations: TAMRA carboxytetramethylrhodamine PCR polymerase chain reaction PBS phosphate buffered saline EDTA ethylenediaminetetraacetic acid Tris 2-amino-2-(hydroxymethyl)-1,3-propanediol NP-40 Nonidet P-40, octylphenoxypolyethoxyethanol BSA bovine serum albumin In Vitro UCHL1 Inhibition Assay Expression and Purification of UCHL1
The UCHL1 construct was PCR amplified and cloned into a pFLAG-CMV-6a vector (Sigma-Aldrich) with an N-terminal FLAG tag. HEK293T cells were transfected with FLAG-UCHL1 using TransIT-LT1 transfection reagent (Mirus) according to the manufacturer's instructions. Cells were harvested 40 hours after transfection. Cells were washed once with PBS and scraped in lysis buffer (50 mM Tris, pH 7.5, 150 mM NaCl, 3 mM EDTA, 0.5% NP40, 10% glycerol, 5 mM beta-mercaptoethanol, protease inhibitors (complete mini, Roche) and phosphatase inhibitors (PhosSTOP mini, Roche). Lysates were incubated for 30 min on ice and centrifuged at 1200 rpm for 10 min at 4° C. Soluble supernatant was added to FLAG affinity resin (EZview Rad ANTI-FLAG M2 affinity gel, Sigma-Aldrich) equilibrated in low salt buffer (20 mM Tris, pH 7.5, 150 mM NaCl, 0.5 mM EDTA, 5 mM beta-mercaptoethanol) and incubated at 4° C. for 3 hours rotating. The resin was spun at 2000 rpm for 2 min and the supernatant was removed. The resin was washed two times with low salt buffer and one time with high salt buffer (20 mM Tris, pH 7.5, 500 mM NaCl, 0.5 mM EDTA, 5 mM beta-mercaptoethanol, protease inhibitors (complete mini, Roche) and phosphatase inhibitors (PhosSTOP mini, Roche). To elute the bound UCHL1, elution buffer (10 mM Tris, pH 7.5, 150 mM NaCl, 0.5 mM FDTA, 10% glycerol, 0.5% NP40, 5 mM beta-mercaptoethanol, 0.15 mg/ml 3×FLAG peptide (Sigma-Aldrich)) was added to the resin and incubated at 4° C. for 2.5 hours rotating. The resin was centrifuged at 4000 rpm for 30 seconds, and the supernatant containing purified FLAG-UCHL1 was removed and stored at −80° C.
UCHL1 Biochemical IC50 Assay
Dilution plates were prepared at 21 times the final concentration (2100 μM for a final concentration of 100 µM) in 50% DMSO in a 96-well polypropylene V-bottom plate (Greiner #651201). A typical 8-point dilution series to be 100, 30, 10, 3, 1, 0.3, 0.1, 0.03 μM final. Reactions were performed in duplicate in black 384 well plates (small volume, Greiner 784076) in a final reaction volume of 21 μl. Either 1 μl of 50% DMSO or diluted compound was added to the plate. UCHL1 was diluted in reaction buffer (20 mM Tris, pH 7.5, 100 mM NaCl, 0.05% Tween 20, 0.5 mg/ml BSA, 5 mM—beta mercaptoethanol) to the equivalent of 0.05 μl/well and 10 μl of diluted UCHL1 was added to the compound. Enzyme and compound were incubated for 30 min at room temp. Reactions were initiated by the addition of 50 nM of TAMRA labelled peptide linked to ubiquitin via an iso-peptide bond as fluorescence polarisation substrate. Reactions were read immediately after addition of substrate and following a 2 hr incubation at room temperature. Readings were performed on a Pherastar Plus (BMG Labtech). λ Excitation 540 nm; k Emission 590 nm.

pIC50 | Compound
5.00 to 6.00 | C[C@@H]1CN(C#N)C[C@H]1C(=O)Nc1cn(-c2ccccc2)cn1 [Example 85, (f)-1-cyano-4-methyl-N-(1-phenyl-1H-imidazol-4-yl)pyrrolidine-3-carboxamide]
5.00 to 6.00 | N#CN1CC[C@H](C(=O)Nc2cc(-c3cccc(Cl)c3)ncn2)C1 [Example 257, (S)-N-(6-(3-chlorophenyl)pyrimidin-4-yl)-1-cyanopyrrolidine-3-carboxamide]
5.00 to 6.00 | CC(C)(C)c1cnc(NC(=O)C2CCN(C#N)C2)s1 (centres unmarked) [Example 8, N-(5-(tert-butyl)thiazol-2-yl)-1-cyano-pyrrolidine-3-carboxamide]
> 6.00 | CC[C@@H]1CN(C#N)C[C@H]1C(=O)Nc1ncc(-c2ccccc2)s1 (racemic) [Example 86, (±)-1-cyano-4-ethyl-N-(5-phenylthiazol-2-yl)pyrrolidine-3-carboxamide]
> 6.00 | CC(C)S(=O)(=O)N1CCc2nc(NC(=O)[C@H]3CCN(C#N)C3)sc2C1 [Example 203, (S)-1-cyano-N-(5-(isopropylsulfonyl)-4,5,6,7-tetrahydrothiazolo[5,4-c]pyridin-2-yl)pyrrolidine-3-carboxamide]
4.52 to 5.00 | N#CN1CCC(C(=O)Nc2ccccn2)C1 (centres unmarked) [Example 24, 1-cyano-N-(pyridin-2-yl)pyrrolidine-3-carboxamide]
> 6.00 | N#CN1CC[C@H](C(=O)Nc2cc(-c3cccc4nccn34)ccn2)C1 [Example 253, (S)-1-cyano-N-(4-(imidazo[1,2-a]pyridin-5-yl)pyridin-2-yl)pyrrolidine-3-carboxamide]
> 6.00 | Cn1nc(NC(=O)[C@H]2CCN(C#N)C2)cc1-c1ccccc1 [Example 60, (S)-1-cyano-N-(1-methyl-5-phenyl-1H-pyrazol-3-yl)pyrrolidine-3-carboxamide]
> 6.00 | N#CN1CC[C@H](C(=O)Nc2cn(C3CCCN(Cc4ccccc4)C3)cn2)C1 (stereo partly drawn) [Example 186, (3S)—N-(1-(1-benzylpiperidin-3-yl)-1H-imidazol-4-yl)-1-cyanopyrrolidine-3-carboxamide]
5.00 to 6.00 | N#CN1CC[C@H](C(=O)Nc2cc(-c3ccncc3)ncn2)C1 [Example 274, (S)-1-cyano-N-(6-(pyridin-4-yl)pyrimidin-4-yl)pyrrolidine-3-carboxamide]
> 6.00 | N#CN1CC[C@H](C(=O)Nc2cc(-c3ccnc4ccnn34)ccn2)C1 [Example 251, (S)-1-cyano-N-(4-(pyrazolo[1,5-a]pyrimidin-7-yl)pyridin-2-yl)pyrrolidine-3-carboxamide]
> 6.00 | COCCn1cc(-c2ccc(-n3cnc(NC(=O)[C@H]4CCN(C#N)C4)c3)cc2)cn1 [Example 278, (S)-1-cyano-N-(1-(4-(1-(2-methoxyethyl)-1H-pyrazol-4-yl)phenyl)-1H-imidazol-4-yl)pyrrolidine-3-carboxamide]
> 6.00 | CN(C)C(=O)c1cccc(-c2cnc(NC(=O)[C@H]3CCN(C#N)C3)s2)c1 [Example 235, (S)-1-cyano-N-(5-(3-(dimethylcarbamoyl)phenyl)thiazol-2-yl)pyrrolidine-3-carboxamide]
5.00 to 6.00 | N#CN1CC[C@H](C(=O)Nc2cnc3ccccc3c2)C1 [Example 272, (S)-1-cyano-N-(quinolin-3-yl)pyrrolidine-3-carboxamide]
5.00 to 6.00 | N#CN1CCC(C(=O)Nc2nc3ccc(C(F)(F)F)cc3s2)C1 (centres unmarked) [Example 20, 1-cyano-N-(6-(trifluoro-methyl)benzo[d]thiazol-2-yl)pyrrolidine-3-carboxamide]
5.00 to 6.00 | CC1CN(Cc2cnc(NC(=O)[C@H]3CCN(C#N)C3)s2)CC(C)O1 (stereo partly drawn) [Example 142, (3S)-1-cyano-N-(5-((2,6-dimethylmorpholino)methyl)thiazol-2-yl)pyrrolidine-3-carboxamide]

pIC50 | Compound
> 6.00 | N#CN1CC[C@H](C(=O)Nc2ncc(-c3ccc(Cl)c(C(N)=O)c3)s2)C1 [Example 237, (S)-N-(5-(3-carbamoyl-4-chlorophenyl)thiazol-2-yl)-1-cyanopyrrolidine-3-carboxamide]
5.00 to 6.00 | N#CN1CC[C@H](C(=O)Nc2cc3ccccn3n2)C1 [Example 267, (S)-1-cyano-N-(pyrazolo[1,5-a]pyridin-2-yl)pyrrolidine-3-carboxamide]
> 6.00 | N#CN1CC[C@H](C(=O)Nc2ncc(N3Cc4ccccc4C3)s2)C1 [Example 97, (S)-1-cyano-N-(5-(isoindolin-2-yl)thiazol-2-yl)pyrrolidine-3-carboxamide]
> 6.00 | N#CN1CC[C@H](C(=O)Nc2cn(-c3ccc4cn[nH]c4c3)cn2)C1 [Example 301, (S)-N-(1-(1H-indazol-6-yl)-1H-imidazol-4-yl)-1-cyanopyrrolidine-3-carboxamide]
5.00 to 6.00 | C[C@H]1[C@@H](C(=O)Nc2ncc(-c3ccccc3Cl)s2)CCN1C#N [Example 77, (2S,3S)—N-(5-(2-chlorophenyl)thiazol-2-yl)-1-cyano-2-methylpyrrolidine-3-carboxamide]
> 6.00 | N#CN1CC[C@H](C(=O)Nc2cn3cc(C(F)(F)F)ccc3n2)C1 [Example 270, (S)-1-cyano-N-(6-(trifluoromethyl)imidazo[1,2-a]pyridin-2-yl)pyrrolidine-3-carboxamide]
5.00 to 6.00 | N#CN1CCC(C(=O)Nc2ncc(CN3CCCC3)s2)C1 (centres unmarked) [Example 141, 1-cyano-N-(5-(pyrrolidin-1-ylmethyl)thiazol-2-yl)pyrrolidine-3-carboxamide]
5.00 to 6.00 | N#CN1CC[C@H](C(=O)Nc2cc3cccnc3cn2)C1 [Example 256, (S)-1-cyano-N-(1,7-naphthyridin-6-yl)pyrrolidine-3-carboxamide]
> 6.00 | N#CN1CC[C@H](C(=O)Nc2cn(C3CCOCC3)cn2)C1 [Example 161, (S)-1-cyano-N-(1-(tetrahydro-2H-pyran-4-yl)-1H-imidazol-4-yl)pyrrolidine-3-carboxamide]
5.00 to 6.00 | N#CN1CCC(C(=O)Nc2nc3ccccc3s2)C1 (centres unmarked) [Example 18, N-(benzo[d]thiazol-2-yl)-1-cyano-pyrrolidine-3-carboxamide]
> 6.00 | N#CN1CC[C@H](C(=O)Nc2ncc(-c3ccnnc3)s2)C1 [Example 213, (S)-1-cyano-N-(5-(pyridazin-4-yl)thiazol-2-yl)pyrrolidine-3-carboxamide]
> 6.00 | N#CN1CC[C@H](C(=O)Nc2cc(-c3cnc4nccn4c3)ccn2)C1 [Example 255, (S)-1-cyano-N-(4-(imidazo[1,2-a]pyrimidin-6-yl)pyridin-2-yl)pyrrolidine-3-carboxamide]
> 6.00 | N#CN1CCC(C(=O)Nc2ncc(-c3ccc(N)cc3)s2)C1 (centres unmarked) [Example 111, N-(5-(4-aminophenyl)thiazol-2-yl)-1-cyanopyrrolidine-3-carboxamide]
5.00 to 6.00 | N#CN1CC2CC2(C(=O)Nc2ncc(-c3ccccc3)s2)C1 (centres unmarked) [Example 279, 3-cyano-N-(5-phenylthiazol-2-yl)-3-azabicyclo[3.1.0]hexane-1-carboxamide]
5.00 to 6.00 | N#CN1CC[C@H](C(=O)Nc2cc(-c3ccnc(N)c3)ccn2)C1 [Example 258, (S)-N-(2′-amino-[4,4′-bipyridin]-2-yl)-1-cyanopyrrolidine-3-carboxamide]
5.00 to 6.00 | N#CN1CC[C@H](C(=O)Nc2nc3c(Br)cccc3s2)C1 [Example 48, (S)-N-(4-bromobenzo[d]thiazol-2-yl)-1-cyano-pyrrolidine-3-carboxamide]
